# Ends that are not written are not given here.
# Assays:
# RAW 264.7 cell line [1] = test: Confocal microscopy of FITC-labeled B11 peptide binding to RAW 264.7 cell line; format: cell-based, murine; conditions: FIG. 5A
# Method: (§1) The cell line RAW 264.7 obtained from the American Type Culture Collection was grown in Dulbecco's modified Eagle's medium (DMEM) supplemented with 10% FCS, 1% penicillin, 1% L-glutamine, 1% nonessential amino acids, and 1% pyruvate (Biological Industries, Beit Haemek, Israel) to an 80% confluent culture at 37° C. in an atmosphere enriched with 5% CO2.
# B11 peptide (50 μg) was conjugated to FITC (Biotium, Hayward, Calif.) as described by Sethi et al., [Sethi, K. K., et al. Cell Motil Cytoskeleton 52:231-241 (2002)]. For confocal microscopy, RAW 264.7 cells were grown in 8-well glass slides, Chamber Slide™ (Nunc), as described above. Cells were washed three times in cold PBS and incubated with the FITC-labeled mimotope for 5 min at 4° C. in serial dilutions of 1:2-1:100 in cold PBS. Slides were imaged immediately with a Zeiss 410 confocal laser scanning microscope.
# RAW 264.7 cell line [2] = test: FACS analysis of FITC-labeled mimotope binding to RAW 264.7 cell line; format: cell-based, murine
# Method: as §1
# RAW 264.7 cells were grown in a 250-ml flask, washed 3 times in cold PBS, and harvested. Cells were then incubated for 15 min at 37° C., with the FITC-labeled peptide diluted 1:50, then washed 3 times in cold PBS. The fluorescence levels of 10,000 cell counts were determined by FACS (Becton Dickinson, Franklin Lakes, N.J.) and analyzed by CELLQuest™ software. Assay of competitive binding between mannose and the FITC-labeled B11 peptide was performed according to Nguyen and Hildreth, [Nguyen, D. G., and Hildreth, J. E. Eur J Immunol 33:483-493 (2003)].
# CS40 anti-ManLAM mAb = test: ELISA competition vs. ManLAM for CS40 mAb; format: binding; conditions: 50 μg/ml of peptide; FIG. 1B
# Method: Binding efficacy of the amino acid molecule to ManLAM binding antibodies may be evaluated by determining the magnitude of OD decrease when serial dilutions of phage clones/amino acid molecule are incubated with CS40 mAb. The phage clones/amino acid molecule with a higher affinity to mAb will show maximum inhibition of the binding of the mAb to ManLAM with the lowest number of phage particles or lowest amount of amino acid molecule, respectively.
# ELISA competition assay was performed according to Kaur et al., [Kaur, D., et al. Microbiology 148:3049-3057 (2002)]. Briefly, plates were coated with 0.5 μg/well ManLAM. Plates were blocked as described above. The CS40 mAb (diluted 1:2000) was mixed with various concentrations of either phage particles in TBS/1% BSA ([…]) or peptides in PBS/1% BSA (0-200 μg/well). […] After washing (PBS), the ELISA procedure was performed as described above. Samples were all tested in triplicate
# Efficiency of binding was evaluated by the magnitude of OD decrease when serial dilutions of phage clones were incubated with the CS40 mAb.
# CS40 mAb = test: Direct peptide ELISA with CS40 mAb; format: binding; conditions: synthetic peptide coated plates
# [3] = system: IgG antibodies in sera of Mtb-infected mice; format: binding, BALB/c mice
# [4] = system: serum antibodies of TB patients; test: Direct ELISA of human sera on B11 peptide or ManLAM coated plates; conditions: FIG. 4
# Method: Direct ELISA assays were performed by coating 96-well ELISA plates (O/N at 4° C.) with 5-20 μg peptide per well in PBS ManLAM 5 μg/well (50 μl/well). The plates were washed twice in phosphate buffered saline (PBS), blocked with PBS/1% BSA and then washed twice (PBS). Sera diluted in PBS/0.5% BSA (1:50 or 1:200) or CS40 mAb (1:2000) (50 μl per well) was added and incubated for 1 h at 37° C. After washing, alkaline phosphatase-labeled goat anti-mouse immunoglobulin (Sigma, St. Louis, Mo.) was added. Following 90-min incubation at 37° C., p-nitrophenyl phosphate (KPL, Gaithersburg, Md.) was added to the plates, and optical density was measured at 405 nm using ELISA reader (ELX-800UV, Bio-Tec instruments, Winooski, Vt.). In all ELISA procedures, samples were tested in triplicate.
# The presence of serum antibodies in sera of TB patients that bind the B11 peptide was tested. […] Using ELISA, sera from Bacillus Calmette Guerin (BCG)-vaccinated individuals (n=10) was tested, as it is sometimes difficult to distinguish BCG-vaccinated individuals from TB patients [Ciesielski, S. D., J Fam Pract 40:76-80 (1995)].
substance,measurement,setting,value
"FITC-conjugated B11 peptide: B11 peptide conjugated to FITC (ISLTEWSMWYRH; also: FITC-conjugated, position not given here)",binding to macrophage cell line RAW 264.7 by confocal microscopy,RAW 264.7 cell line [1],bound
same,effect of D-mannose on binding to macrophages (FACS),"RAW 264.7 cell line [2]; 0.125 M D-mannose added, FIG. 5C",inhibited
same,binding to macrophage cell line RAW 264.7 by FACS analysis,"RAW 264.7 cell line [2]; FITC-labeled peptide diluted 1:50, FIG. 5B",bound
ISLTEWSMWYRH (random phage display library) [B11 peptide],decrease in OD in competitive ELISA vs. ManLAM,CS40 anti-ManLAM mAb,100%
same,binding to CS40 mAb by direct ELISA,CS40 mAb,bound
same,"IgG Abs in sera of Mtb-infected mice binding the antigen, vs. naive mice",[3],significantly higher
same,anti-peptide antibody titers in BCG-vaccinated individuals vs. TB patients,"[4]; BCG-vaccinated (n=10), p<0.001",significantly lower
same,antigen-binding antibody titers in sera of TB patients vs. healthy individuals,[4]; TB patients (n=16) vs. healthy individuals (n=36),Significantly higher titers
"CISLTEWSMWYRH (random phage display library) [SEQ ID NO: 10, B11 peptide with additional cysteine residue at the amino terminus]",binding properties to ManLAM-binding antibodies compared with original peptide,"[3]; ELISA with extra cysteine at the amino terminus, data not shown",maintained binding properties
